The subject of one test is pCH040.c/2625. In words: MAGI assay, T/F HIV-1 clone pCH040.c/2625. Format: cell-based. As to conditions: Human immunodeficiency virus 1, MAGI. The source says:
(§1) We also examined the activity of GRL-compounds against Transmitter/founder (T/F) HIV-1 viruses. T/F viruses are involved in the initial infection. It is considered that T/F viruses virtually always use CCR5 rather than CXCR4 and infect T cells but not macrophages because […] of CD4 is needed to mediate virus entry for the initial transmission[20]–[24]. […] We obtained four HIV-1 T/F infectious clones. We determined the antiviral activity of GRL-117C, GRL-10007C and GRL-10018C on these HIV-1 clones using MAGI assay.
(§2) MAGI-CCR5 cells[18] were maintained in DMEM supplemented with 10% fetal calf serum (FCS: Gemini Bio-Products, West Sacramento, CA), 200 μg/ml G418, 100 μg/ml hygromycin B, and 100 μg/ml zeomycin. The Chinese hamster ovary (CHO) cells expressing CCR5[19] were maintained in Ham’s F-12 medium (GIBCO-BRL, Rockville, MD) supplemented with 10% FCS, 50 U/ml penicillin, and 50 μg/ml streptomycin in the presence of 5 μg/ml blasticidin S hydrochloride. TZM-bl cells were obtained from the NIH AIDS Reagent Program, and were cultured in DMEM with 10% FCS. Peripheral blood mononuclear cells (PBMCs) were isolated from buffy coats of HIV-1 seronegative individuals, and were activated with 10 μg/ml phytohemagglutinin (PHA) prior to use[16]. A laboratory wild-type R5-HIV-1 strain (HIV-1Ba-L)[37] was employed for drug susceptibility assays. AD101 (experimental CCR5 inhibitor) and VVC-resistant HIV clones[7],[8] were provided by Dr. John P. Moore of Cornell University for this study. The clones were propagated with activated PBMCs, and were used for the assays. […] The following reagents (plasmids) for T/F HIV-1 viruses[22],[24] were obtained through the NIH AIDS Reagent Program, Division of AIDS, NIAID, NIH: pCH040.c/2625 (cat# 11740), pCH106.c/2633 (cat# 11743), pTHRO.c/2626 (cat# 11745), and pCH058.c/2960 (cat# 11856), from Dr. John Kappes and Dr. Christina Ochsenbauer.
(§3) Antiviral assays using PHA-PBMCs (p24 assay) were conducted as previously reported[16],[38]. In brief, PHA-PBMCs (1 × 10^6/ml) were exposed to 50 TCID50 of HIV-1Ba-L or drug-resistant HIV-1 infectious clones in the presence or absence of various concentrations of drugs; 10-fold serial dilutions were performed in 96-well microculture plates. The amount of p24 antigens produced by the cells was determined on day 7 in the culture via a commercially available ELISA kit (PerkinElmer). The p24 production level in drug-free control cell cultures was used as the reference. […] Antiviral assays using MAGI-CCR5 cells (MAGI assay) were conducted as previously reported[16],[39]. Single-round virus infection assays using TZM-bl cells infected with R5-HIV-1s (HIV-1YU2, HIV-1KP-5pc, and HIV-1KP-5mvcR)[10] were also conducted as previously described.

The subject of another test is CC1/85 cl.7. Description: Anti-HIV-1 assay, drug-naive clinical strain CC1/85 cl.7. The test is classed as cell-based. As to conditions: Human immunodeficiency virus 1. As to the method:
(§4) MAGI-CCR5 cells[18] were maintained in DMEM supplemented with 10% fetal calf serum (FCS: Gemini Bio-Products, West Sacramento, CA), 200 μg/ml G418, 100 μg/ml hygromycin B, and 100 μg/ml zeomycin. The Chinese hamster ovary (CHO) cells expressing CCR5[19] were maintained in Ham’s F-12 medium (GIBCO-BRL, Rockville, MD) supplemented with 10% FCS, 50 U/ml penicillin, and 50 μg/ml streptomycin in the presence of 5 μg/ml blasticidin S hydrochloride. TZM-bl cells were obtained from the NIH AIDS Reagent Program, and were cultured in DMEM with 10% FCS. Peripheral blood mononuclear cells (PBMCs) were isolated from buffy coats of HIV-1 seronegative individuals, and were activated with 10 μg/ml phytohemagglutinin (PHA) prior to use[16]. A laboratory wild-type R5-HIV-1 strain (HIV-1Ba-L)[37] was employed for drug susceptibility assays. AD101 (experimental CCR5 inhibitor) and VVC-resistant HIV clones[7],[8] were provided by Dr. John P. Moore of Cornell University for this study. The clones were propagated with activated PBMCs, and were used for the assays. A clinical HIV-1 strain, HIV-1KP-5pc, and an MVC-resistant isolate, HIV-1KP-5mvcR, were prepared and used for antiviral assays, as previously described[10],[38]. The following reagents (plasmids) for T/F HIV-1 viruses[22],[24] were obtained through the NIH AIDS Reagent Program, Division of AIDS, NIAID, NIH: pCH040.c/2625 (cat# 11740), pCH106.c/2633 (cat# 11743), pTHRO.c/2626 (cat# 11745), and pCH058.c/2960 (cat# 11856), from Dr. John Kappes and Dr. Christina Ochsenbauer.
as §3

A further test deals with T1, CCR5 (Homo sapiens, UniProt P51681).
T1 construct: expressed in transfected cells; host or cells: Chinese hamster ovary (CHO) cells expressing CCR5
In words: Inhibition of 125I-RANTES binding to CCR5 (CCR5+ CHO cells). As to the method: In order to determine whether GRL derivatives block the binding of CC-chemokines to CCR5, we conducted a CC-chemokine binding inhibition assay using ^125I-labeled CC-chemokines (^125I-RANTES, ^125I-MIP-1α, and ^125I-MIP-1β) and CCR5 expressing cells.
CCR5^+ CHO cells were incubated with (A) ^125I-MIP-1α, (B) ^125I-MIP-1β, and (C) ^125I-RANTES (200 ng/ml) in the presence or absence of varying concentrations of CCR5 inhibitors. Data are shown as means ± s.d. of three independent experiments.
The inhibition of the binding of ^125I-labeled CC-chemokines ([^125I] RANTES, [^125I] MIP-1α, or [^125I] MIP-1β) to CCR5 by various CCR5 inhibitors was measured as previously described. Calcium flux inhibition assays were also performed with CCR5 inhibitors, and were carried out with the Fluo-4 Direct^TM calcium reagent (Invitrogen); assays were conducted as previously described with minor modifications. In brief, CHO-CCR5 cells (5 × 10^5 cells) were exposed to Fluo-4 Direct^TM calcium reagent for 60 min at 37 °C in RPMI containing 5% FCS. Cells were then incubated with the test compound for 30 min at varying concentrations. Subsequently, cells were exposed to either MIP-1α, MIP-1β, or RANTES at 200 ng/ml. Relative increases in cytosolic Ca^2+ levels after chemokine exposure were determined with flow cytometry (FACSCalibur, BD Biosciences), and IC50 values of cytosolic Ca^2+ mobilization (Ca^2+ flux) were compared with the Ca^2+ flux level in drug-free control samples.

For a further test, the system named is pTHRO.c/2626. In words: MAGI assay, T/F HIV-1 clone pTHRO.c/2626. The test is classed as cell-based. To be noted: Human immunodeficiency virus 1, MAGI.
Excerpt: as §1, §2, §3

For another test, the system named is HIV-1KP-5pc. In words: TZM-bl single-round infection assay, HIV-1KP-5pc. Format: cell-based. To be noted: Human immunodeficiency virus 1, TZM-bl. As to the method: as §4, §3

T1 sequence (P51681 whole entry): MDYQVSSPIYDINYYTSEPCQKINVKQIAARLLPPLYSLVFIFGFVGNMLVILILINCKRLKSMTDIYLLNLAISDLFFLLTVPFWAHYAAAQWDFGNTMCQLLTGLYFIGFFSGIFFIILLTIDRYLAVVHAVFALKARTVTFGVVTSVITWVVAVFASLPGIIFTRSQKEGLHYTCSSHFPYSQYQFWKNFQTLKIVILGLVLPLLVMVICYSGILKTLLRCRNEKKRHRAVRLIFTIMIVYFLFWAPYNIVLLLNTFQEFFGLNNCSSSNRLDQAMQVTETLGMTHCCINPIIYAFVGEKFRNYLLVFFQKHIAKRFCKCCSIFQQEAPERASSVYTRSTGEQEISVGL

As usually defined, the IC50 is the midpoint of a concentration-inhibition curve. Lower therefore signals inhibition by little substance. The term IC90 denotes the point of the concentration-response curve where the effect stands at 90%. A high value points to a need for much substance. Broadly, the EC50 is the concentration needed to bring the measured effect to its halfway point. A low value points to a more potent agent. As for `C=CCN(C(=O)OCc1ccc([N+](=O)[O-])cc1)C1CC2CCC(C1)N2CCC(C)(CN(C)S(=O)(=O)c1ccccc1)c1ccccc1` (stereo not shown) [GRL-117C], the half-maximal inhibitory concentration (IC50) in the test on pCH040.c/2625 is 2 ± 0.6 nM; with CC1/85 cl.7, 3.5 nM; with pTHRO.c/2626, 2.1 ± 0.2 nM; in the test with HIV-1KP-5pc (KP-5pc, drug-sensitive clinical strain, TZM-bl assay, mean ± SD), 160 ± 30 nM. Besides, the IC90 with CC1/85 cl.7 is 28.9 nM; in the test on HIV-1KP-5pc, 767 nM. Besides, on CCR5, the EC50 came out at 121 nM.

(Values after paper PMC6423129, “Activity and structural analysis of GRL-117C: a novel small molecule CCR5 inhibitor active against R5-tropic HIV-1s” (Scientific Reports, 2019).)
